These results are taken from paper PMC5059851, “Inhibition of Hedgehog-dependent tumors and cancer stem cells by a newly identified naturally occurring chemotype” (Cell Death & Disease, 2016).

The subject of one assay is Hh pathway (Gli-responsive firefly luciferase reporter). The experiment in a line: Hh-dependent Gli-luciferase reporter assay in SAG-treated NIH3T3 Shh-Light II cells. The format is cell-based. To be noted: SAG (200 nM)-treated NIH3T3 Shh-Light II cells, 48 h, normalized to Renilla; N.A. = Not Active. On the procedure: The inhibitory properties of the potential Smo antagonists 1–17 were investigated in a luciferase reporter assay that is widely used for characterizing Hh inhibitors. NIH3T3 Shh-Light II cells, stably incorporating a Gli-responsive firefly luciferase reporter (Gli-RE),[25] were treated with the synthetic Smo agonist SAG[24] alone or in combination with the selected small molecules to evaluate their dose–response ability to suppress Hh pathway. […] We excluded the possibility that inhibition activity in this assay was mediated by cytotoxicity because no decrease was shown in the luciferase assay control Renilla as observed instead for 13–17.
The luciferase assay was performed in Shh-Light II cells, stably incorporating a Gli-responsive luciferase reporter and the pRL-TK Renilla (normalization control), treated for 48 h with SAG (200 nM) and the studied compounds. Luciferase and Renilla activity were assayed with a dual-luciferase assay system according to the manufacturer's instruction (Biotium Inc., Hayward, CA, USA). Results are expressed as luciferase/Renilla ratios and represent the mean±S.D. of three experiments, each performed in triplicate.
(Reporter assays use an easily measured gene product as a stand-in for the process of interest.)
Broadly, the IC50 is the concentration that gives 50% inhibition. For “3-benzo[1,3]dioxol-5-yl-1-(2,4,5-trimethoxy-phenyl)-propan-1-one [Compound 7]”, the IC50 was 38.5 ± 3.57 µM.
On the same count and under the same terms, the same measure for `CC1=C[C@@H]2c3c(O)cc(/C=C/c4ccc(O)cc4O)cc3OC3(c4ccc(O)c5c4OC(C)(C)C=C5)Oc4cc(O)ccc4[C@@H](C1)[C@H]23` (stereo partly drawn) [Compound 6, (3aS,13bS,13cR)-6-[(E)-2-(2,4-dihydroxyphenyl)vinyl]-8a-(5-hydroxy-2,2-dimethyl-2H-chromen-8-yl)-2-methyl-1,8a,13b,13c-tetrahydro-3aH-benzo[3,4]isochromeno[1,8-bc]chromene-4,11-diol]: 30 ± 1.93 µM.
On the same count and under the same terms, the same measure for `CC(C)=CCc1c(O)ccc(C(=O)[C@H]2[C@@H](c3c(O)cc(/C=C/c4ccc(O)cc4O)cc3O)C=C(C)C[C@@H]2c2ccc(O)cc2O)c1O` [Compound 8, [2,4-dihydroxy-3-(3-methyl-2-buten-1-yl)phenyl][(1R,2S,6S)-6-(2,4-dihydroxyphenyl)-2-{4-[(E)-2-(2,4-dihydroxyphenyl)vinyl]-2,6-dihydroxyphenyl}-4-methyl-3-cyclohexen-1-yl]methanone]: 27.5 ± 2.67 µM.
Consider `COc1cc(OC)c2c(=O)c(-c3ccc4c(c3)OCO4)coc2c1` [Compound 9, 3-(1,3-benzodioxol-5-yl)-5,7-dimethoxy-4H-chromen-4-one], for which the IC50 worked out at 24.1 ± 1.6 µM.
As to `COc1ccc(C=CC(=O)c2c(OC)cc(OC)c(OC)c2OC)cc1OC` [Compound 10, 3-(3,4-dimethoxy-phenyl)-1-(2,3,4,6-tetramethoxy-phenyl)-2-propen-1-one], the IC50 worked out at 31.3 ± 2.29 µM.
Turning to `COc1c(C2COc3cc(O)c(CC=C(C)C)c(O)c3C2=O)ccc(O)c1CC=C(C)C` (stereo not shown) [Compound 11, 5,7-dihydroxy-3-[4-hydroxy-2-methoxy-3-(3-methyl-2-buten-1-yl)phenyl]-6-(3-methyl-2-buten-1-yl)-2,3-dihydro-4H-chromen-4-one], the IC50 turned out to be 22.6 µM.

The target in a further assay is T1, human Smo D473H (Homo sapiens, UniProt Q99835, D473H).
T1 construct: Myc-DDK; expressed in transfected cells; host or cells: HEK293T
T1 sequence (Q99835 28-787 D473H): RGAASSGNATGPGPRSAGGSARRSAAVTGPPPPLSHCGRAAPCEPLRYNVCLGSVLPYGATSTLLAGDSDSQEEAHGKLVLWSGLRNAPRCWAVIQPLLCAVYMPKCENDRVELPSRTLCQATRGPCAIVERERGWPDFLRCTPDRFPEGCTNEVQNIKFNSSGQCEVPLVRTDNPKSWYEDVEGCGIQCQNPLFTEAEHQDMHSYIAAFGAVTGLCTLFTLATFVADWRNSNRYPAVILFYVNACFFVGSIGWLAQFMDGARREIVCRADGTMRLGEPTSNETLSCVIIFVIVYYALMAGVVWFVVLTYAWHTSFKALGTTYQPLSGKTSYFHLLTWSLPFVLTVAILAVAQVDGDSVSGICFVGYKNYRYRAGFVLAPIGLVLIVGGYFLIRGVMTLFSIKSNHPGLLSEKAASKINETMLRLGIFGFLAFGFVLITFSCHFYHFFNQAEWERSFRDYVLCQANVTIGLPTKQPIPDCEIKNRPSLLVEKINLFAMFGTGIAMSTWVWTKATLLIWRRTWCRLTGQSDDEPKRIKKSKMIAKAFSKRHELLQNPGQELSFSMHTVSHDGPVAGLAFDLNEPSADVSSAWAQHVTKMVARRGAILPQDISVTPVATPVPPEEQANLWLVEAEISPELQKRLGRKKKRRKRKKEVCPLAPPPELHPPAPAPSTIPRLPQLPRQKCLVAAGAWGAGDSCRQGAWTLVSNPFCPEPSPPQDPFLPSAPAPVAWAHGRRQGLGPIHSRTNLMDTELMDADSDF
The experiment in a line: Bodipy-Cyclopamine (BC) binding assay, HEK293T cells transfected with human Smo D473H. To be noted: resistant Smo mutants versus WT. On the procedure: Cells were washed in PBS supplemented with 0.5% fetal bovine serum, fixed in 4% paraformaldehyde in phosphate-buffered saline (PBS) for 10 min, and incubated for 2 h at 37 °C both in the same medium supplemented with Bodipy-Cyclopamine (5 nM) and the studied compounds. The cells were permeabilized with Triton X100 (Sigma) 0.2%. Dako Fluorescent mounting (Dako, Carpinteria, CA, USA) was used as mounting medium and Hoechst reagent for staining of the cell nuclei. Bodipy (green) and Hoechst (blue) signals were analyzed in three to four representative fields per coverslip (× 20 magnification, 1000 cells/field). Data were expressed as percentage of BC incorporation observed with BC alone.[95]
As for `CS(=O)(=O)c1ccc(C(=O)Nc2ccc(Cl)c(-c3ccccn3)c2)c(Cl)c1` [Vismodegib, reference compound], the “loss of affinity for the resistant Smo mutants in binding assay” value is recorded as “about 1000 fold”.
